Measured values from US10941138B2, “Quinoline and isoquinoline derivatives for treating pain and pain related conditions” (ESTEVE PHARMACEUTICALS, S.A., priority 2016, dated 2021).
Where two headings read alike, the source gives them in different places.

Columns and labels:
[1] = molecular target: human norepinephrine transporter (NET) (Homo sapiens (Human), UniProt P23975); assay: Binding assay to human norepinephrine transporter (NET) ([3H]-Nisoxetin); conditions: Table 2, dual compounds, human NET enriched membranes, read-out: Ki (nM) NET Hum
Experimental: Binding Assay to Human Norepinephrine Transporter (NET).
Human norepinephrine transporter (NET) enriched membranes (5 μg) were incubated with 5 nM of radiolabeled [3H]-Nisoxetin in assay buffer containing 50 mM Tris-HCl, 120 mM NaCl, 5 mM KCl, pH 7.4.
(§1) NSB (non specific binding) was measured by adding desipramine 10 μM. The binding of the test compound was measured at five different concentrations. After 60 min incubation at 4° C., binding reaction was terminated by filtering through Multiscreen GF/C (Millipore) presoaked in 0.5% polyethyleneimine in Vacuum Manifold Station, followed by 3 washes with ice-cold filtration buffer containing 50 mM Tris-HCl, 0.9% NaCl, pH 7.4.
Filter plates were dried at 60° C. for 1 h and 30 μl of scintillation cocktail were added to each well before radioactivity reading.
(§2) Readings were performed in a Trilux 1450 Microbeta radioactive counter (Perkin Elmer).

[2] = molecular target: human α2δ-1 subunit of Cav2.2 calcium channel (Homo sapiens (Human), UniProt P54289); assay: Binding assay to human α2δ-1 subunit of Cav2.2 calcium channel ([3H]-Gabapentin); conditions: read-out: Ki (nM) alpha2delta Hum
Experimental: Binding Assay to Human α2δ-1 Subunit of Cav2.2 Calcium Channel.
Human α2δ-1 enriched membranes (2.5 μg) were incubated with 15 nM of radiolabeled [3H]-Gabapentin in assay buffer containing Hepes-KOH 10 mM, pH 7.4.
as §1, with “adding” for “adding desipramine”, “μM pregabalin.” for “μM.”, “27°” for “4°”, “Tris-HCl,” for “Tris-HCl, 0.9% NaCl,”, “7.4. Filter plates were dried at 60° C. for 1 h and 30 μl of scintillation cocktail were added to each well before radioactivity reading.” for “7.4.”
as §2

[3] = Table 1, human α2δ-1 enriched membranes
[4] = Table 2, dual compounds, human α2δ-1 enriched membranes

Chain of human norepinephrine transporter (NET) (P23975 whole entry): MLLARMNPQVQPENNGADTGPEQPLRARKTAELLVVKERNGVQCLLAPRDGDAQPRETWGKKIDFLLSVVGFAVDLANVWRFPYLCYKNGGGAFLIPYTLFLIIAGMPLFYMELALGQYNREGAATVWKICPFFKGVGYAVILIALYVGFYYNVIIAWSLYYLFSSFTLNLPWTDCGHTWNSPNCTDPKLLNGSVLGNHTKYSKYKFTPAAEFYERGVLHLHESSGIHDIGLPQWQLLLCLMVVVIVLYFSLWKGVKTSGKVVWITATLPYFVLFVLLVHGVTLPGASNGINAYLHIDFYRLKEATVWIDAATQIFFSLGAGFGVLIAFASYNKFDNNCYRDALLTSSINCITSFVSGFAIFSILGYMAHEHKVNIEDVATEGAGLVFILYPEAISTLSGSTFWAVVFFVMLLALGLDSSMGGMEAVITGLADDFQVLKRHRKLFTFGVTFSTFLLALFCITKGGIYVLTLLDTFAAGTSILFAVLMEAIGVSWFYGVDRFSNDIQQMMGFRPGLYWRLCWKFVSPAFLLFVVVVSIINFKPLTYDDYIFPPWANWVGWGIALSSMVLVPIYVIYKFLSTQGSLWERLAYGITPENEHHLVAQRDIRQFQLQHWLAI
Chain of human α2δ-1 subunit of Cav2.2 calcium channel (P54289 25-1103): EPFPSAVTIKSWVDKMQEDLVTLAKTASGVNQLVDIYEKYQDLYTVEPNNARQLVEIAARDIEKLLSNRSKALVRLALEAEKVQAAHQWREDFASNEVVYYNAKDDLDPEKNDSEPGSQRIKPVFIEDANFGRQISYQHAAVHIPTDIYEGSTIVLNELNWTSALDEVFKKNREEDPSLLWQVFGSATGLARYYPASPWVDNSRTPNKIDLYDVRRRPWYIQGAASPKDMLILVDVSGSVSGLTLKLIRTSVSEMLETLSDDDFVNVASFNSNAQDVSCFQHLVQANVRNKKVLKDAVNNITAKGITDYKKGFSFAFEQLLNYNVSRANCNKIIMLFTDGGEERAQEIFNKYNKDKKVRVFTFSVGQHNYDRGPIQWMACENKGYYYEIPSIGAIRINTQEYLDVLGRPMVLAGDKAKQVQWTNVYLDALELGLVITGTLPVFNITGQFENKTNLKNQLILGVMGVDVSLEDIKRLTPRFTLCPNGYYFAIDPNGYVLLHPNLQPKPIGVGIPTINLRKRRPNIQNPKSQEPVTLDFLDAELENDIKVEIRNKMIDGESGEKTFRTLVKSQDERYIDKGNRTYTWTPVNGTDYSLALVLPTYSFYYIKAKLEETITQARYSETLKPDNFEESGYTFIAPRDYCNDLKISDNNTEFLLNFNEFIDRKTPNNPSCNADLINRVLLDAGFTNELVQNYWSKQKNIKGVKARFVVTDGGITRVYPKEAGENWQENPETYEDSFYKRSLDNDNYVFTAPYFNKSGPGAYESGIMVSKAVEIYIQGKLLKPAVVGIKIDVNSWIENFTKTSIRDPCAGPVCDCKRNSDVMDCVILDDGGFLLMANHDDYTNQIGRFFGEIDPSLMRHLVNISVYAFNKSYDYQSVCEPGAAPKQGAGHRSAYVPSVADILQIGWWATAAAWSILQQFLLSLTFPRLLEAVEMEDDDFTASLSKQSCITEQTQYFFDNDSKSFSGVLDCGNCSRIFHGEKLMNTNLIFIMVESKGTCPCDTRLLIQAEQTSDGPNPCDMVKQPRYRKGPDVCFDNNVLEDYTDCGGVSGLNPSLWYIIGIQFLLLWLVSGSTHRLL

SMILES | Ki [1] [nM] | Ki [2, 3] [nM] | Ki [2, 4] [nM]
CNCC[C@H](Oc1cccc2ccncc12)c1cccs1 (stereo in doubt) [Example 12, 3-(isoquinolin-8-yloxy)-N-methyl-3-(thiophen-2-yl)propan-1-amine] | 100 to 500 | 100 to 500 | 100 to 500
CNCCC(Oc1cccc2cccnc12)c1cccs1 (stereo not drawn) [Example 1, N-Methyl-3-(quinolin-8-yloxy)-3-(thiophen-2-yl)propan-1-amine] | < 100 | ≥ 3000 | ≥ 3000
CNCCC(Oc1cccc2ncccc12)c1cccs1 (stereo not drawn) [Example 2, N-methyl-3-(quinolin-5-yloxy)-3-(thiophen-2-yl)propan-1-amine] | 100 to 500 | 100 to 500 | 100 to 500
CNCCC(Oc1cccc2cnccc12)c1cccs1 (stereo not drawn) [Example 3, 3-(isoquinolin-5-yloxy)-N-methyl-3-(thiophen-2-yl)propan-1-amine] | < 100 | 100 to 500 | 100 to 500
CNCC[C@H](Oc1cccc2ncccc12)c1cccs1 [Example 9, (S)-N-methyl-3-(quinolin-5-yloxy)-3-(thiophen-2-yl)propan-1-amine] | 500 to 1000 | < 100 | < 100
CNCC[C@H](Oc1cccc2ccncc12)c1cccs1 [Example 10, (S)-3-(isoquinolin-8-yloxy)-N-methyl-3-(thiophen-2-yl)propan-1-amine] | 500 to 1000 | ≥ 3000 | ≥ 3000
CNCC[C@H](Oc1cccc2cnccc12)c1cccs1 [Example 11, (S)-3-(isoquinolin-5-yloxy)-N-methyl-3-(thiophen-2-yl)propan-1-amine] | < 100 | ≥ 3000 | ≥ 3000
CNCC[C@@H](Oc1cccc2ccncc12)c1cccs1 [Example 13, (R)-3-(isoquinolin-8-yloxy)-N-methyl-3-(thiophen-2-yl)propan-1-amine] | 100 to 500 | 100 to 500 | 100 to 500
CNCC[C@@H](Oc1cccc2cnccc12)c1cccs1 [Example 14, (R)-3-(isoquinolin-5-yloxy)-N-methyl-3-(thiophen-2-yl)propan-1-amine] | 100 to 500 | 100 to 500 | 100 to 500
CNCC[C@@H](Oc1cccc2ncccc12)c1cccs1 [Example 15, (R)-N-methyl-3-(quinolin-5-yloxy)-3-(thiophen-2-yl)propan-1-amine] | 100 to 500 | 100 to 500 | 100 to 500
CNCCC(Oc1cccc2cnccc12)c1cccnc1 (stereo not drawn) [Example 17, 3-(isoquinolin-5-yloxy)-N-methyl-3-(pyridin-3-yl)propan-1-amine] | 100 to 500 | ≥ 3000 | ≥ 3000
CNCCC(Oc1cccc2cnccc12)C1CCOCC1 (stereo not drawn) [Example 18, 3-(isoquinolin-5-yloxy)-N-methyl-3-(tetrahydro-2H-pyran-4-yl)propan-1-amine] | 100 to 500 | ≥ 3000 | ≥ 3000
CNCCC(Oc1cccc2cnccc12)c1ccncc1 (stereo not drawn) [Example 25, 3-(isoquinolin-5-yloxy)-N-methyl-3-(pyridin-4-yl)propan-1-amine] | 100 to 500 | ≥ 3000 | ≥ 3000
CNCCC(Oc1cccc2ccncc12)c1cc(C(F)(F)F)ccn1 (stereo not drawn) [Example 30, 3-(isoquinolin-8-yloxy)-N-methyl-3-(4-(trifluoromethyl)pyridin-2-yl)propan-1-amine] | 500 to 1000 | ≥ 3000 | ≥ 3000
CNCCC(Oc1cccc2ncccc12)c1ccc(Cl)s1 (stereo not drawn) [Example 41, 3-(5-chlorothiophen-2-yl)-N-methyl-3-(quinolin-5-yloxy)propan-1-amine] | 100 to 500 | 100 to 500 | 100 to 500
CNCCC(Oc1cccc2ncccc12)c1ccc(F)s1 (stereo not drawn) [Example 42, 3-(5-fluorothiophen-2-yl)-N-methyl-3-(quinolin-5-yloxy)propan-1-amine] | 100 to 500 | < 100 | < 100
NCCC(Oc1cccc2cnccc12)c1cccs1 (stereo not drawn) [Example 44, 3-(isoquinolin-5-yloxy)-3-(thiophen-2-yl)propan-1-amine] | 100 to 500 | ≥ 3000 | ≥ 3000
CNCCC(Oc1cccc2cnccc12)c1ccc(F)s1 (stereo not drawn) [Example 45, 3-(5-fluorothiophen-2-yl)-3-(isoquinolin-5-yloxy)-N-methylpropan-1-amine] | 100 to 500 | < 100 | < 100
CNCCC(Oc1cccc2cnccc12)c1sccc1F (stereo not drawn) [Example 46, 3-(3-fluorothiophen-2-yl)-3-(isoquinolin-5-yloxy)-N-methylpropan-1-amine] | < 100 | 100 to 500 | 100 to 500
CNCCC(Oc1cccc2ccncc12)c1sccc1F (stereo not drawn) [Example 47, 3-(3-fluorothiophen-2-yl)-3-(isoquinolin-8-yloxy)-N-methylpropan-1-amine] | 100 to 500 | 100 to 500 | 100 to 500

Further lines, results first:

Ki [1] [nM] | Ki [2, 3] [nM] | Ki [2, 4] [nM] | SMILES
100 to 500 | 100 to 500 | 100 to 500 | CNCCC(Oc1cccc2ncccc12)c1sccc1F (stereo not drawn) [Example 48, 3-(3-fluorothiophen-2-yl)-N-methyl-3-(quinolin-5-yloxy)propan-1-amine]
100 to 500 | 100 to 500 | 100 to 500 | CNCCC(Oc1cccc2ccncc12)c1ccc(F)s1 (stereo not drawn) [Example 49, 3-(5-fluorothiophen-2-yl)-3-(isoquinolin-8-yloxy)-N-methylpropan-1-amine]
< 100 | 500 to 3000 | 500 to 3000 | CNCC[C@H](Oc1cccc2cnccc12)c1ccc(F)s1 [Example 50, (S)-3-(5-fluorothiophen-2-yl)-3-(isoquinolin-5-yloxy)-N-methylpropan-1-amine]
100 to 500 | 100 to 500 | 100 to 500 | CNCC[C@H](Oc1cccc2ncccc12)c1ccc(F)s1 [Example 51, (S)-3-(5-fluorothiophen-2-yl)-N-methyl-3-(quinolin-5-yloxy)propan-1-amine]
100 to 500 | < 100 | < 100 | CNCC[C@@H](Oc1cccc2cnccc12)c1ccc(F)s1 [Example 52, (R)-3-(5-fluorothiophen-2-yl)-3-(isoquinolin-5-yloxy)-N-methylpropan-1-amine]
100 to 500 | < 100 | < 100 | CNCC[C@@H](Oc1cccc2ncccc12)c1ccc(F)s1 [Example 53, (R)-3-(5-fluorothiophen-2-yl)-N-methyl-3-(quinolin-5-yloxy)propan-1-amine]
100 to 500 | 500 to 3000 | 500 to 3000 | CNCCC(Oc1ccc2cnccc2c1)c1cccs1 (stereo not drawn) [Example 54, 3-(isoquinolin-6-yloxy)-N-methyl-3-(thiophen-2-yl)propan-1-amine]
< 100 | 100 to 500 | 100 to 500 | CNCCC(Oc1cccc2cnccc12)c1ccsc1 (stereo not drawn) [Example 56, 3-(isoquinolin-5-yloxy)-N-methyl-3-(thiophen-3-yl)propan-1-amine]
500 to 1000 | 100 to 500 | 100 to 500 | CNCCC(Oc1cccc2ccncc12)c1ccsc1 (stereo not drawn) [Example 58, 3-(isoquinolin-8-yloxy)-N-methyl-3-(thiophen-3-yl)propan-1-amine]
100 to 500 | 100 to 500 | 100 to 500 | CNCC[C@@H](Oc1cccc2cnccc12)c1ccsc1 [Example 60, (R)-3-(isoquinolin-5-yloxy)-N-methyl-3-(thiophen-3-yl)propan-1-amine]
